Data reported in ChEMBL document CHEMBL1201862, “PubChem BioAssay data set” (2004).
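Interpolation was linear, between the two tested concentrations surrounding the appropriate level; five concentrations were tested over 48 hours in 96-well plates. The concentration for 50% growth inhibition is given as GI50.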 Active and inactive are the calls of the source. Rule as the data show it: active = GI50 up to about 1.1 µM and inactive = higher.

What was measured:
Assay in all cases: inhibition of tumour cell growth, NCI panel, 48 h
[1] = test system: SF-539
[2] = test system: SK-OV-3
[3] = test system: HOP-92
[4] = test system: U-251
[5] = test system: SR
[6] = test system: CCRF-CEM
[7] = test system: LOX IMVI
[8] = test system: MCF7
[9] = test system: HOP-62
[10] = test system: HT-29
[11] = test system: IGROV-1
[12] = test system: DU-145
[13] = test system: HL-60
[14] = test system: SNB-75
[15] = test system: MDA-MB-231
[16] = test system: UO-31
[17] = test system: SW-620
[18] = test system: Malme-3M
[19] = test system: Hs-578T
[20] = test system: CAKI-1

| SMILES | GI50 [1] | GI50 [2] | GI50 [3] | GI50 [4] | GI50 [5] | GI50 [6] | GI50 [7] | GI50 [8] | GI50 [9] | GI50 [10] | GI50 [11] | GI50 [12] | GI50 [13] | GI50 [14] | GI50 [15] | GI50 [16] | GI50 [17] | GI50 [18] | GI50 [19] | GI50 [20] |
| --- | --- | --- | --- | --- | --- | --- | --- | --- | --- | --- | --- | --- | --- | --- | --- | --- | --- | --- | --- | --- |
| Oc1ccc(CCNCc2cc3c(cc2Br)OCO3)cc1 | 4.17 µM (inactive) | 51.8 µM (inactive) | > 100 µM (inactive) | 77.8 µM (inactive) | 32.4 µM (inactive) | 73.8 µM (inactive) | 88.9 µM (inactive) | 70.1 µM (inactive) | 79.3 µM (inactive) | 52.8 µM (inactive) | > 100 µM (inactive) | > 100 µM (inactive) | 28.1 µM (inactive) | 18.4 µM (inactive) | 55.3 µM (inactive) | 55.7 µM (inactive) | > 100 µM (inactive) | 62.8 µM (inactive) | > 100 µM (inactive) |  |
| O=C1/C(=N\NC(=S)Nc2ccc(Cl)cc2)c2cc([N+](=O)[O-])ccc2N1CN1CCOCC1 | 11.3 µM (inactive) | 12.6 µM (inactive) | 8.47 µM (inactive) | 7.18 µM (inactive) | 1.99 µM (inactive) | 2.85 µM (inactive) | 10.1 µM (inactive) | 5.24 µM (inactive) | < 0.01 µM (active) |  | 4.19 µM (inactive) | 10.5 µM (inactive) | 0.502 µM (active) | 12.8 µM (inactive) | 15 µM (inactive) | 3.78 µM (inactive) | 4.37 µM (inactive) | 6.17 µM (inactive) | 7.03 µM (inactive) | 3.52 µM (inactive) |
| CSc1ncnc2c1cnn2CCCCO | > 100 µM (inactive) | > 100 µM (inactive) | > 100 µM (inactive) | > 100 µM (inactive) | > 100 µM (inactive) | > 100 µM (inactive) | > 100 µM (inactive) | > 100 µM (inactive) | > 100 µM (inactive) | > 100 µM (inactive) | > 100 µM (inactive) | > 100 µM (inactive) | > 100 µM (inactive) |  | > 100 µM (inactive) | > 100 µM (inactive) | > 100 µM (inactive) | > 100 µM (inactive) | > 100 µM (inactive) | > 100 µM (inactive) |
| COC(=O)C(=O)C(C(=O)C(=O)Nc1ccc([N+](=O)[O-])cc1[N+](=O)[O-])c1nc2ccc(Cl)cc2nc1O (stereo not given) | > 100 µM (inactive) | > 100 µM (inactive) | > 100 µM (inactive) | > 100 µM (inactive) | > 100 µM (inactive) | > 10 µM (inactive) | > 100 µM (inactive) | > 100 µM (inactive) |  | > 100 µM (inactive) |  | > 100 µM (inactive) | > 100 µM (inactive) | 16.5 µM (inactive) | 50.2 µM (inactive) | 80.4 µM (inactive) | > 100 µM (inactive) |  | 25.1 µM (inactive) | 17.5 µM (inactive) |
| CC(C)(C)OC(=O)NC12C3C4C1C1C2C3C41NC(=O)OC(C)(C)C (stereo not given) | 31 µM (inactive) |  | 68.1 µM (inactive) | 37.8 µM (inactive) | 47.5 µM (inactive) | 21.3 µM (inactive) | 36.1 µM (inactive) | 29.6 µM (inactive) | 50.6 µM (inactive) | 26.9 µM (inactive) | > 100 µM (inactive) | 68.4 µM (inactive) | 19.7 µM (inactive) |  | 26 µM (inactive) | 39.4 µM (inactive) | 62.8 µM (inactive) |  | 23.7 µM (inactive) | > 100 µM (inactive) |
| CCCc1c(O)c(=O)c2c(OC)cc(OC)c3c4c(OC)cc(OC)c5c(=O)c(O)c(CCC)c(c1c23)c54 | 0.361 µM (active) | 0.342 µM (active) | 0.681 µM (active) | 0.415 µM (active) | 0.141 µM (active) | 0.181 µM (active) | 0.338 µM (active) | 0.403 µM (active) | 0.543 µM (active) | 0.729 µM (active) | 0.337 µM (active) | 0.37 µM (active) | 1.74 µM (inactive) | 0.183 µM (active) | 1.56 µM (inactive) | 0.404 µM (active) | 1.13 µM (inactive) |  | 0.468 µM (active) | 0.394 µM (active) |
| CC12CP(=O)(c3ccccc3)CC1c1ccccc1C2c1ccccc1 (stereo not given) | 17.8 µM (inactive) | 40.1 µM (inactive) | 22.1 µM (inactive) | 16.5 µM (inactive) | 14.3 µM (inactive) | 3.04 µM (inactive) |  | > 100 µM (inactive) | 18.5 µM (inactive) | 15.5 µM (inactive) | 3.44 µM (inactive) | 21 µM (inactive) | 7.52 µM (inactive) |  | 18.5 µM (inactive) | 16.7 µM (inactive) | 17 µM (inactive) | 15.6 µM (inactive) | 26.3 µM (inactive) |  |
| CC(C)COC(c1ccc2c(c1)OCO2)C(C)Br (stereo not given) | 23.3 µM (inactive) | 24.1 µM (inactive) | 21.7 µM (inactive) | 26.5 µM (inactive) | 21.2 µM (inactive) |  | 17.4 µM (inactive) | 31.4 µM (inactive) | 24.9 µM (inactive) | 18.9 µM (inactive) | 32.8 µM (inactive) | 33.1 µM (inactive) |  | 23.1 µM (inactive) | 35.9 µM (inactive) | 22.5 µM (inactive) | 28.9 µM (inactive) | 17.1 µM (inactive) | 25.9 µM (inactive) | 30.3 µM (inactive) |
| CC(=O)OCC(OC(C)=O)C1C[C@H]2O[C@@H]3[C@H](C[C@H]2O1)O[C@@]1(C[C@@H]3C)C[C@H](C)[C@@H]2O[C@]3(C[C@@H]2O1)C[C@H]1O[C@H]2[C@H](C)[C@H]4OC(=O)CC5CC[C@H]6OC7[C@H]8O[C@]9(CC[C@H]%10CC(O)(CO)[C@H](CC[C@H]%11C[C@@H](C)C(O)(CO)C(C[C@@H]4O[C@H]2C[C@H]1O3)O%11)O%10)CC8O[C@@H]7[C@@H](O9)[C@H]6O5 (stereo not given in full) |  | 0.0284 µM (active) | 0.0504 µM (active) | 0.00618 µM (active) | 0.000581 µM (active) | 0.00944 µM (active) | 0.0146 µM (active) | 0.00281 µM (active) | 0.0622 µM (active) |  | 0.00436 µM (active) | 0.00386 µM (active) |  | 0.00308 µM (active) | 0.0705 µM (active) | 0.0226 µM (active) | 0.00492 µM (active) | 0.00297 µM (active) | 0.00154 µM (active) | 0.0127 µM (active) |
| CN(C)c1ccc(C(=C2C=CC(=[N+](C)C)C=C2)c2c(O)c(S(=O)(=O)[O-])cc3cc(S(=O)(=O)O)ccc23)cc1 | > 100 µM (inactive) | > 100 µM (inactive) | > 100 µM (inactive) | > 100 µM (inactive) | > 100 µM (inactive) |  | > 100 µM (inactive) | > 100 µM (inactive) | > 100 µM (inactive) | > 100 µM (inactive) | > 100 µM (inactive) | > 100 µM (inactive) |  | > 100 µM (inactive) | > 100 µM (inactive) | > 100 µM (inactive) | > 100 µM (inactive) | > 100 µM (inactive) | > 100 µM (inactive) | > 100 µM (inactive) |
| COc1ccc(C2=Nn3c(C)nnc3S/C2=C\c2ccc(-c3ccc([N+](=O)[O-])cc3)o2)cc1 | 5.51 µM (inactive) | 64.1 µM (inactive) | 22.5 µM (inactive) | 9.33 µM (inactive) | 3.21 µM (inactive) | 3.92 µM (inactive) | 6.03 µM (inactive) | 3.18 µM (inactive) | 24.4 µM (inactive) | 14.2 µM (inactive) | 20.8 µM (inactive) | 12.2 µM (inactive) | 5.12 µM (inactive) |  | 19.9 µM (inactive) | 15.1 µM (inactive) |  | 30.1 µM (inactive) | 49.4 µM (inactive) | 14.5 µM (inactive) |
| CC(C)=CCN1CC(C)C(=O)Nc2ccccc21 (stereo not given) | > 100 µM (inactive) | > 100 µM (inactive) | 49 µM (inactive) | > 100 µM (inactive) | > 100 µM (inactive) | > 100 µM (inactive) | > 100 µM (inactive) | 61.4 µM (inactive) | > 100 µM (inactive) | > 100 µM (inactive) | > 100 µM (inactive) | > 100 µM (inactive) | > 100 µM (inactive) |  | > 100 µM (inactive) | > 100 µM (inactive) | > 100 µM (inactive) | > 100 µM (inactive) | > 100 µM (inactive) | > 100 µM (inactive) |
| Nc1cc2c3c(cccc3c1)C(=O)N(c1ccc(OCCN3CCCC3)cc1)C2=O | 13.3 µM (inactive) | 1.61 µM (inactive) | 17.8 µM (inactive) | 25.6 µM (inactive) | 17.9 µM (inactive) | 23.3 µM (inactive) | 17 µM (inactive) | 17.3 µM (inactive) | 15.9 µM (inactive) | 13.5 µM (inactive) | 16.3 µM (inactive) | 27.4 µM (inactive) |  | 3.94 µM (inactive) | 24.8 µM (inactive) | 15.1 µM (inactive) | 29.4 µM (inactive) | 17.7 µM (inactive) | 18.7 µM (inactive) | 45.3 µM (inactive) |
| O=S(=O)(c1ccccc1)[C@H]1[C@@H]2O[C@@H]2C[C@@H]1O | > 100 µM (inactive) | > 100 µM (inactive) | > 100 µM (inactive) | > 100 µM (inactive) | > 100 µM (inactive) | > 100 µM (inactive) |  | > 100 µM (inactive) | > 100 µM (inactive) | > 100 µM (inactive) | > 100 µM (inactive) | > 100 µM (inactive) | > 100 µM (inactive) | 47.4 µM (inactive) | > 100 µM (inactive) | > 100 µM (inactive) | > 100 µM (inactive) | > 100 µM (inactive) | > 100 µM (inactive) | > 100 µM (inactive) |
